Patent EP4741389A1, “KAT6 INHIBITOR” (Shanghai Qilu Pharmaceutical Research and Development …, priority 2023, dated 2025)

Tests used:
[1] = target: T1, KAT6A (Homo sapiens, UniProt Q92794); test: KATs acetyltransferase enzyme activity assay (TR-FRET), KAT6A; type: biochemical; settings: Biotin-H3 (1-21) and AcCOA, 90 minutes at room temperature
T1 construct: purchased Active Motif 81223

[2] = target: T2, KAT6B (Homo sapiens, UniProt Q8WYB5); test: KATs acetyltransferase enzyme activity assay (TR-FRET), KAT6B; type: biochemical; settings: Biotin-H3 (1-21) and AcCOA, 90 minutes at room temperature
T2 construct: purchased Active Motif 81224
T2 sequence (Q8WYB5 whole entry): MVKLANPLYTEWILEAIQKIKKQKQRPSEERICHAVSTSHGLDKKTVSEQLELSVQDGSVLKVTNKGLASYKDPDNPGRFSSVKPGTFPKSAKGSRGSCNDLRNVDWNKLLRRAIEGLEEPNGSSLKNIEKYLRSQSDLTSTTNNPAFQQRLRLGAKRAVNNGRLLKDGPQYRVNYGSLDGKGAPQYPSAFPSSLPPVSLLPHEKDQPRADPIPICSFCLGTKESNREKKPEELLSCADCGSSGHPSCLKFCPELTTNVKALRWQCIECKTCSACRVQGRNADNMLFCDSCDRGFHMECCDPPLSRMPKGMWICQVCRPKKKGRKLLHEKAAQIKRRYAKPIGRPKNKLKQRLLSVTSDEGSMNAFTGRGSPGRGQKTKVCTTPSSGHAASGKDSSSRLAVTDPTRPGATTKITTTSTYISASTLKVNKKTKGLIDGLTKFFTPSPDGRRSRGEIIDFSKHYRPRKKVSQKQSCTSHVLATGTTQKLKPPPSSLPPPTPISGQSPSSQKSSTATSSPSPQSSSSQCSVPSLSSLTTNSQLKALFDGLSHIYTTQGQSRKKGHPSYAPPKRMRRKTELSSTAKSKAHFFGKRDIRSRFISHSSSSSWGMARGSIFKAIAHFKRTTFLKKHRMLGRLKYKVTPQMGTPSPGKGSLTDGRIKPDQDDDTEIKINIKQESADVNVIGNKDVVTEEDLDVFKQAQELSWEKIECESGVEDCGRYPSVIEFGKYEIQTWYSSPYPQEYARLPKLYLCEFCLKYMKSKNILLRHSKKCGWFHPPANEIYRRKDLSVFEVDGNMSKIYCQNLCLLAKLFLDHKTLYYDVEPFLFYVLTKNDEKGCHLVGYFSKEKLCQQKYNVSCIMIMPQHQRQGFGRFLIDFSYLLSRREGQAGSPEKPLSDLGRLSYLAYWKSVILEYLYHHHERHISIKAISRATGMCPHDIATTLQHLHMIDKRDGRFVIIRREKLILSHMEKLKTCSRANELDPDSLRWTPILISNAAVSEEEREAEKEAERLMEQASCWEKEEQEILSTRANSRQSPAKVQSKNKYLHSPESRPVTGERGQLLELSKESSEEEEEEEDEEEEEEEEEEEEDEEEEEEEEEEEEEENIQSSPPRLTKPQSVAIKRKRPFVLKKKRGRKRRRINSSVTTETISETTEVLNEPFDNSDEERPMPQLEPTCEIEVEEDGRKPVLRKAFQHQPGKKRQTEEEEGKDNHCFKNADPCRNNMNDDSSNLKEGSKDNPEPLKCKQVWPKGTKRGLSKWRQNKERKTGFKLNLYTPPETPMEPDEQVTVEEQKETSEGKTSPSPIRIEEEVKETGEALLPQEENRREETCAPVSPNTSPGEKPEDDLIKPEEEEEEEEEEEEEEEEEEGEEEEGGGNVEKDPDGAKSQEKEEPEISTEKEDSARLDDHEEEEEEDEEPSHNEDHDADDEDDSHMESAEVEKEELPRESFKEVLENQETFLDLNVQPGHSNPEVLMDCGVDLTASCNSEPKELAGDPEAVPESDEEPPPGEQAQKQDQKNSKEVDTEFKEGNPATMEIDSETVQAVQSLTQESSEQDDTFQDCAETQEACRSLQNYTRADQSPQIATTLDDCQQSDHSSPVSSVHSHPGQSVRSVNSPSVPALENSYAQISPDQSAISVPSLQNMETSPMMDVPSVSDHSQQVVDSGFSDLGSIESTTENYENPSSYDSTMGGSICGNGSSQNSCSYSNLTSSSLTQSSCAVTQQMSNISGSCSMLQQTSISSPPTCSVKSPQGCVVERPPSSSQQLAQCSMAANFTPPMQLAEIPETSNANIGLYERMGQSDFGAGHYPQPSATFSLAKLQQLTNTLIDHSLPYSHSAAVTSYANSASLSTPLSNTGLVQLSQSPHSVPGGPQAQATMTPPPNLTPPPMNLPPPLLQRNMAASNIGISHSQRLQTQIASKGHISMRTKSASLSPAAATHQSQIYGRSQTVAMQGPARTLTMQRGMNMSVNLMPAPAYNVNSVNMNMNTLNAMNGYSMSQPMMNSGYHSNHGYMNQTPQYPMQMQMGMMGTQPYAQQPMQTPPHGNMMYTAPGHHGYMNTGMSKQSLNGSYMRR
How it was run: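 TR-FRET assay in Tris-HCl buffer: enzyme preincubated with compound 15 min at room temperature, then biotin-H3(1-21) peptide and acetyl-CoA added for 90 min at room temperature. Acetylation detected with Eu-anti-acetyl-histone H4 lysine antibody and ULight-streptavidin (60 min), 665/620 nm ratio; IC50 from four-parameter logistic fit.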

[3] = Body weight changes and tolerability in the ZR-75-1 xenograft study; type: in vivo, Mouse; settings: result in words; for body weight changes: differences among the groups, FIG. 1
Protocol: (§1) • Species: Mouse; • Strain: BALB/c nude mice; • Age and weight: 6-8 weeks old, weighing 19-26 grams; • Gender: Female; • Supplier: GemPharmatech Co., Ltd.; • Compound source: Compound A: [drawing 190] prepared with reference to patent CN114364672A.
(§2) A mixture containing 10×10^6 ZR-75-1 cells in 100 µL PBS and 100 µL Matrigel (final volume was 200 µL) was subcutaneously implanted into the right dorsal side (upper side) of each mouse. On day 18 after cell implantation, when the average tumor volume reached 138 mm^3, grouping and administration were initiated. Mice with tumor volumes ranging from 100 to 212 mm^3 were selected for the study. Mice were randomly assigned to groups based on body weight and tumor volume, with 7 mice per group. The day of grouping was designated as PG-D0, and administration for all groups started from PG-D0.
The effects of the test drugs Compound 2, Compound 5-P2, Compound 3, and Compound A on the body weight of the female BALB/c nude mouse model with subcutaneously implanted human breast cancer ZR-75-1 cell xenografts are shown in FIG. 1.

[4] = test system: human breast cancer ZR-75-1 cell xenografts; test: In vivo efficacy study in BALB/c nude mouse model with subcutaneous ZR-75-1 xenografts; settings: for T/C / TGI / Tumor Volume: 0.3 mg/kg; for T/C / TGI: based on tumor volume on day 21 post-administration; for Tumor Volume: day 21 post-administration, female BALB/c nude mice, 7 per group
Source text: IV. In vivo efficacy study of test drug Compound 2, Compound 5-P2, Compound 3, and Compound A in a BALB/c nude mouse model with subcutaneously implanted human breast cancer ZR-75-1 cell xenografts
The objective of this experiment is to evaluate the in vivo efficacy of the test drug Compound 2, Compound 5-P2, Compound 3, and Compound A in a BALB/c nude mouse model with subcutaneously implanted human breast cancer ZR-75-1 cell xenografts.
as §1
Human breast cancer ZR-75-1 (ATCC, CRL-1500) cells were cultured in vitro as adherent cultures. The culture conditions were: 1640 medium supplemented with 10 vol% FBS, 100 U/mL penicillin, and 100 µg/mL streptomycin, incubated in a 37°C, 5% CO2 cell culture incubator. Routine passaging was performed twice a week. When cell confluence reached 80%-90% and the cell number met the requirements, cells were harvested, counted, and inoculated.
Three days before cell implantation, a 17β-estrogen pellet (0.36 mg) was implanted into the left dorsal side of each mouse. Starting one week after pellet implantation, animals were urinated 2-3 times per week. If necessary, animals were urinated daily.
as §2
The experimental index is to investigate whether tumor growth is inhibited, delayed, or cured. Tumor diameters were measured three times per week using a vernier caliper. Tumor volume was calculated using the formula: V = 0.5a × b^2, where a and b represent the major and minor diameters of the tumor, respectively.
The anti-tumor efficacy of the compounds was evaluated using TGI (%) or the relative tumor proliferation rate T/C (%). TGI (%), reflects the tumor growth inhibition rate. TGI (%) was calculated as: TGI (%) = [1 - (Mean tumor volume of a treatment group at the end of administration - Mean tumor volume of the same treatment group at the start of administration) / (Mean tumor volume of the vehicle control group at the end of treatment - Mean tumor volume of the vehicle control group at the start of treatment)] × 100%.
Relative Tumor Proliferation Rate T/C (%): The calculation formula is as follows: T/C% = TRTV / CRTV ×100 % (TRTV: RTV of the treatment group; CRTV: RTV of the negative control group). The relative tumor volume (RTV) was calculated based on tumor measurement results using the formula RTV = Vt /V0, where V0 is the tumor volume of each mouse measured at the start of grouping and administration (i.e., d0), and Vt is the tumor volume of each mouse at a specific measurement time. The mean value for each group was then calculated. V0 and Vt correspond to tumor volume data from the same mouse.

T1 sequence (Q92794 488-778 limits assumed): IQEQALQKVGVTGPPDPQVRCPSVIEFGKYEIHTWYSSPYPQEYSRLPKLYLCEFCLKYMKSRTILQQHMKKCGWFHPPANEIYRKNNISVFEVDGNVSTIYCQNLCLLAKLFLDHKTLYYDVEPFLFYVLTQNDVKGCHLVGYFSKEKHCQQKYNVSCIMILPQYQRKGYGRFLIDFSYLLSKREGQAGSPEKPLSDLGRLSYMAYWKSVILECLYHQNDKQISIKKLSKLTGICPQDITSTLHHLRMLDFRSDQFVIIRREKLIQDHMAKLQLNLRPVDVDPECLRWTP

Row | SMILES | IC50 [1] | IC50 [2] | body weight changes [3] | tolerability in tumor-bearing mice ([3]; human breast cancer ZR-75-1 model) | T/C [4] | TGI [4] | Tumor Volume [4] | anti-tumor effects ([4]; ZR-75-1 xenograft model, tumor growth curves FIG. 2, result in words)
1 | COc1ccc2c(c1S(=O)(=O)Nc1noc3cc(Cn4cccn4)cc(OC)c13)OCC21CC1 [Compound 3, N-(6-((1H-Pyrazol-1-yl)methyl)-4-methoxybenzo[d]isoxazol-3-yl)-6-methoxy-2H-spiro[benzofuran-3,1'-cyclopropane]-7-sulfonamide] | 1.8 nM | 7.5 nM | not significant | tolerated | 12.95% | 104.47% | 106 ± 12 mm^3 | more significant anti-tumor effects compared to Compound A
2 | COc1ccccc1S(=O)(=O)Nc1noc2cc(Cn3cccn3)cc(OC)c12 [Compound A, reference compound] | – | – | not significant | – | 33.17% | 80.40% | 278 ± 44 mm^3 | –
